These are literature values, as cited in patent US9144554B2, “Topical compositions for use in the prevention and/or treatment of dermatitis” (priority 2011, dated 2015).

The conditions of the data set: medicaments used to treat dermatitis.

For ivermectin, the Toxicity result was “toxic”.

Turning to `CN(Cc1cnc2nc(N)nc(N)c2n1)c1ccc(C(=O)N[C@@H](CCC(=O)O)C(=O)O)cc1` [methotrexate], the Toxicity result is listed as “toxic”.
